The text below walks through data of patent publication US20080051464A1, “Protein phosphatase inhibitors” (The Cleveland Clinic Foundation, priority 2006, published 2008).

The structures appear in SMILES notation.

In one data set the test system is Jurkat cells. The experiment in a line: Jurkat cell growth in culture (MTT assay). It is filed as cell-based, human. As for the experimental part: FIG. 3 illustrates differential toxicity of L5 and L6. Jurkat cells were cultured in the absence or presence of lead compound #5 (L5) (A) or #6 (L6) (B) for 6 days prior to quantification of cell growth by MTT assays. Data represent mean ±SD of triplicate samples. Balb/c mice were treated with L5 (˜10 mg/kg body weight, s.c., daily, M-F/wk) for two weeks to assess its toxicity in vivo (C).
L5, L6 and L6 analogs (Chembridge), mouse IFNγ ELISPOT Kit (R & D System) and antibody against pLck-pY394 or pERK1/2 (Cell Signaling) were purchased from commercial sources. Human Jurkat T cell line and murine B16 melanoma cell line (ATCC) and other cancer cell lines were maintained in […] culture medium supplemented with 10% fetal calf serum (FCS). The effects of chemical compounds on cancer cell growth in culture were quantified by MTT assays following our established procedures.

The target in the next data set is T1, recombinant SHP-1 (Homo sapiens, UniProt P29350).
T1 construct: Recombinant protein of SHP-1 PTPase catalytic domain was described
T1 sequence (P29350 244-515 limits assumed): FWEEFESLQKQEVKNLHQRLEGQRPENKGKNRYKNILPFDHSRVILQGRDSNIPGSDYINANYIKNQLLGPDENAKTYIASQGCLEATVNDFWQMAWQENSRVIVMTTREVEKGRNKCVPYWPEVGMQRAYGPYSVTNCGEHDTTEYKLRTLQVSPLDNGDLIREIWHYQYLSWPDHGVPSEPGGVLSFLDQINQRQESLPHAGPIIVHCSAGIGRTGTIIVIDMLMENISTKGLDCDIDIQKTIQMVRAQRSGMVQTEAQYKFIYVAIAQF
The data set can be described thus: rapid in vitro SHP-1 PTPase assay (DIFMUP substrate). The note with it: 1 μg/well; FIG. 12A. It is filed as biochemical. How it is done:
Recombinant protein of SHP-1 PTPase catalytic domain was described and stored in Tris buffer (25 mM Tris, pH7.5, 1 mM EDTA, 2 μM 2-ME, 25% glycerol) at −80° C. Fluorescence substrate DIFMUP (6,8-difluoro-4 methylumbelliferyl phosphate) was purchased (Molecular Probes). SSG was reported previously (21-23) and stored at 4° C. in darkness prior to use. Human and mouse IFNγ ELISPOT Kit (R & D System), CD4^+ Cell Intracellular IFNγ Detection Kit (BD Bioscience) and CD8^+ Cell Intracellular IFNγ Detection Kit (BD Bioscience) were purchased from commercial sources. Human Jurkat T cell line (26) and murine B16 melanoma cell line (ATCC) were maintained in […] culture medium supplemented with 10% fetal calf serum (FCS). Antibodies against pLck-pY394 (Cell Signaling), pLck-pY505 (Cell Signaling), pZap70 (pY319, BD Biosciences), pSlp76 (pY128, BD Biosciences) and pLat (pY226, BD Biosciences) were purchased from commercial sources.
(§1) A rapid SHP-1 PTPase assay was developed for screening the compounds in a commercial library of 34,000 drug-like small chemicals (Chembridge, Mass.). Briefly, compounds of the library (1 μg/well in 0.21 DMSO) were placed in 96-well plates (Falcon, 353072) and mixed with recombinant SHP-1 protein (0.1 μg/well) in 90 μl of HEPES buffer (50 mM HEPS, pH 7.5, 150 mM NaCl, 1 mM EDTA, 0.2 mM DTT and 0.1 mg/ml BSA). The plates were incubated at room temperature for 10 minutes prior to the addition of fluorescence substrate DIFMUP (40 μM stock in HEPES buffer, 10 μl/well) to initiate PTPase reaction. Upon completion of PTPase reaction at room temperature for 1 hr in darkness, fluorescence signal of individual wells were recorded using a Vector^2 Multilabel Counter (Vector, CA). They were compared to that of control SHP-1 PTPase reaction (˜10,000 units of fluorescence signal) in the absence of any compound (100%) for calculating relative SHP-1 inhibition induced by the compounds after subtracting the background signal (˜500 units of fluorescence signal) of the substrate.
as §1, with “To evaluate their” for “A rapid”, “inhibitory activity,” for “PTPase assay was developed for screening”, “analogs” for “compounds in a commercial library of 34,000 drug-like small chemicals (Chembridge, Mass.). Briefly, compounds of the library”, “0.2 μl” for “0.21”, “aliquot individually to” for “placed in”, “(500” for “(˜500”

On to `O=C1C=CC(=O)C(c2cc(Cl)ccc2Cl)=C1` [L5], for which, in the data set on Jurkat cells, the “toxicity against Jurkat cells in culture (summary)” value was “marked toxicity”. Further, in the data set with Jurkat cells (~30 ng-1 μg/ml, 6 days), the “growth of Jurkat cells in culture” value is “not markedly affected”. Further, the “inhibition of phosphatase activity of recombinant SHP-1” value on recombinant SHP-1 is “completely or almost completely inhibited”.
